These results are taken from the NIST ThermoML archive (doi:10.1016/j.jct.2006.10.009).

The structures appear in SMILES notation. Numbers after ± are expanded uncertainties.

A short description of one data set: Molar enthalpy of transition or fusion. The following applies: Crystal; DSC.
With `CCCCCCCCCC[N+](C)(C)CCCCCCCCCC.O=[N+]([O-])[O-]` [Didecyldimethylammonium nitrate], the “Molar enthalpy of transition or fusion” value was 9.88 ± 0.36 kJ/mol.

Test in a further data set: not given
As to conditions: Crystal; DTA.
Turning to `CCCCCCCCCC[N+](C)(C)CCCCCCCCCC.O=[N+]([O-])[O-]` [Didecyldimethylammonium nitrate], the Normal melting temperature is 31.7 ± 4 °C.

Staying with this data set, now noted: Crystal; visual observation.
As for `CCCCO` [butan-1-ol], the Normal melting temperature is -89.4 ± 4 °C.
On the same count and under the same terms, the figure for `CCCCCCCCCCO` [decan-1-ol] is 5.1 ± 4 °C; for `CCCCCCCCCCCCCCCC` [hexadecane] it is 18.0 ± 4 °C; for `CCCCCC` [hexane] it is -94.3 ± 4 °C.
The same measure, in the same setting: the result for `CCCCCCCCO` [octan-1-ol] reads -14.9 ± 4 °C; that for `CCCO` [propan-1-ol], -126.4 ± 4 °C; that for `CCCc1ccccc1` [propylbenzene], -99.0 ± 4 °C.
The same measure, in the same setting: the figure for `Cc1ccccc1` [toluene] is -95.0 ± 4 °C.
